Among the data in paper PMC11190208, “Bacterial c-di-GMP triggers metamorphosis of mussel larvae through a STING receptor” (NPJ Biofilms and Microbiomes, 2024) are Kd values, retold here.

For the experiment, the target named is T1, McSTING (Mytilus coruscus, UniProt A0A7U0FWW1).
T1 construct: gene STING-3; full-length 1-716aa, pColdIII vector, expressed in E. coli Rosetta
Put plainly: SPR (OpenSPR, McSTING immobilised on COOH chip). Type of experiment: binding. An excerpt: SPR (OpenSPR, McSTING immobilised on COOH chip) on McSTING | concentration-dependent binding of the recombinant protein McSTING to synthetic c-di-GMP with a KD of […]

In general, Kd refers to a measure of binding affinity in units of concentration. A lower Kd goes with a tighter complex.

T1 sequence (A0A7U0FWW1 entry or part of it): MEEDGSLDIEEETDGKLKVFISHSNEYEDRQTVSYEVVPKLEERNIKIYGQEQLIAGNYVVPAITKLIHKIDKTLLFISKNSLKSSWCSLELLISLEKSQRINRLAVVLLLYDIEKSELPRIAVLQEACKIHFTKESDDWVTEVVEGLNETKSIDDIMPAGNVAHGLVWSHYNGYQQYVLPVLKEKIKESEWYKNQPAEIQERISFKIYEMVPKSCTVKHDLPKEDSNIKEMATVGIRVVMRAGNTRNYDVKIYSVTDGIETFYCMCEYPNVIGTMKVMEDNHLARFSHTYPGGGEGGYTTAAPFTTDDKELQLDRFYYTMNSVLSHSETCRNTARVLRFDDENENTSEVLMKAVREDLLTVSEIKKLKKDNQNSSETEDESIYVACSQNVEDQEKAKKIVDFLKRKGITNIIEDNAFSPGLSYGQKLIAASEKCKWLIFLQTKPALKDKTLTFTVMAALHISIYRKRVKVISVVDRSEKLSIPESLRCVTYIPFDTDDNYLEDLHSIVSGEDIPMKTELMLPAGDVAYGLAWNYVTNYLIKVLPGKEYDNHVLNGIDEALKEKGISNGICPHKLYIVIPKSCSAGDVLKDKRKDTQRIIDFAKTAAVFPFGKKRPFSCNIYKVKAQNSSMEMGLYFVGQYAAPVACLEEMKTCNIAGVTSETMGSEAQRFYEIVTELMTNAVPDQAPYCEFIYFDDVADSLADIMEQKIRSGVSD

Compound `Nc1nc2c(ncn2[C@@H]2O[C@@H]3CO[P@](=O)(O)O[C@H]4[C@@H](O)[C@H](n5cnc6c(=O)[nH]c(N)nc65)O[C@@H]4CO[P@](=O)(O)O[C@H]3[C@H]2O)c(=O)[nH]1` [c-di-GMP] came in with an equilibrium dissociation constant (Kd) of 42.7 µM. This lies in the double-digit micromolar range.
